In one assay the test system is C. albicans ATCC 10231. Nature of the assay: Broth microdilution antimicrobial assay (MIC, IC50). Type of assay: cell-based. The settings on record: Candida albicans, 24 h. The protocol: (§1) Reference strains of Staphylococcus aureus (ATCC 25923), Escherichia coli (ATCC 25922), and Candida albicans (ATCC 10231) were used in this study as microbial models. These strains were purchased from the American Type Culture Collection (ATCC); bacterial cultures were routinely grown on 5% blood agar plate, while fungal cultures on Sabouraud Dextrose Agar (Biolife […]., Milan, Italy). […] In short, microbial inocula were prepared at 0.5 McFarland in PBS and, subsequently, bacterial suspensions were diluted 1:200 in Mueller-Hinton broth (Sigma-Aldrich, St. Louis, MO, USA), while fungal inoculum was diluted 1:20 in RPMI-1640 medium (Gibco®, ThermoFisher Scientific Inc., Waltham, MA, USA), containing glucose 2%, 0.3% levo-glutamine buffered to pH 7.0 with 0.165 M 3-(N-morpholino) propanesulfonic acid (MOPS). A total of 100 μL of these microbial suspensions was introduced into a 96-well microplate and incubated with 100 μL of the compounds, two-fold serially diluted in the range of 100-0.19 μM. Positive controls (microbial suspensions in regular media), negative controls (only compounds), and solvent controls (microbial suspensions incubated with DMSO dilutions) were included in the tests. The plate was incubated at 37°C for 24 h, and subsequently the optical density at 630 nm (OD630nm) was spectrophotometrically measured. Experiments were carried out in triplicate in three biological replicates. […] Statistical analysis was carried out by using GraphPad Prism version 9.4.1 for Windows (GraphPad Software, San Diego, California USA, www.graphpad.com). ^a MIC (Minimum Inhibitory Concentration) were determined in vitro by means of a standardized microdilution assay, in compliance with the Clinical and laboratory Standard Institute (CLSI) guidelines (30). Microbial suspensions were prepared at 0.5 McFarland in PBS, then diluted in the media and transferred in a 96 micro-well plate together with the serially 2-fold dilutions of the compounds. After 24h of incubation at 37°C, microbial growths were evaluated by measuring the Optical Density at 600 nm, then percentage values were obtained as relative to the positive controls (microbial suspensions in regular media).

For the next assay, the system named is E. coli ATCC 25922. The assay is described as above. The settings on record: Escherichia coli, 24 h. Type of assay: cell-based. The protocol:
as §1

The next assay has as its system S. aureus ATCC 25923. The description is as above. Type of assay: cell-based. The settings on record: Staphylococcus aureus. The method, then:
as §1

The next assay relates to C. albicans biofilm. Nature of the assay: Inhibition of biofilm formation (crystal violet staining). In kind it is cell-based, Candida albicans. As to conditions: 3.125 µM; 24 h, CV staining. The method, then: The ability of some selected compounds to inhibit biofilm formation was assessed by established protocols with minor modifications. In short, exponential cultures of S. aureus, E. coli, and C. albicans grown in Tryptic Soy broth (TSB, Sigma‐Aldrich, St. Louis, MO, USA) were adjusted to a final density of 10^5 CFU/mL. Aliquots of 100 µL of the microbial cultures were transferred to a 96‐well flat‐bottom polystyrene microplate, and then incubated at 37°C for 90 min to promote bacterial adhesion. Thereafter, wells were slowly rinsed with PBS to remove nonattached cells, and 100 µL of TSB supplemented with 1% glucose containing the twofold serial dilutions of the compounds was added. After incubation at 37°C for 24 h, the free‐floating cells were removed, and the biofilms were carefully washed with PBS. The biomass was quantified by a standardized crystal violet (CV) staining. Briefly, 100 µL of CV solution (0.1% in water) was added to each well containing a completely air‐dried biofilm, and incubated for 30 min at 37°C. […] Finally, the colored supernatants were transferred to a new microplate, and the OD550nm was measured. The percentage inhibition of biofilm formation in the different experimental conditions was calculated relative to the biofilm mass formed in the absence of compounds (positive control).

In the next assay the test system is E. coli. Nature of the assay: Colistin association assay. The settings on record: colistin at sub-inhibitory concentration (MIC/8 = 0.027 µM), versus compound alone. Type of assay: cell-based, Escherichia coli. The method, then: This is a confirmation of the ability of these new QPySs to also affect Gram‐negative proliferation once they pass through the OM.
The dry powder of the chalcone‐based QPySs was resuspended in dimethylsulfoxide (DMSO) at 20 mM and used as stock solutions. For biological investigations, compounds were used in the range 100–0.78 µM, and the solvent in the corresponding percentage range. The following commercially available antimicrobials and toxic clinical drugs were purchased from Sigma‐Aldrich (St. Louis, MO, USA), dissolved in water, and used as reference controls. Gentamicin and ampicillin were used in the range 107.69–0.82 µM and 143.23–1.12 µM, respectively; the colistin was used at 0.03 µM in association with the chalcone‐based QASs with E. coli. The fluconazole was used in the assays with C. albicans in the range 3.27–0.03 µM. […]
In short, microbial inocula were prepared at 0.5 McFarland in PBS and, subsequently, bacterial suspensions were diluted 1:200 in Mueller–Hinton broth (Sigma‐Aldrich, St. Louis, MO, USA), while fungal inoculum was diluted 1:20 in RPMI‐1640 medium (Gibco®, ThermoFisher Scientific Inc., Waltham, MA, USA), containing glucose 2%, 0.3% levo‐glutamine buffered to pH 7.0 with 0.165 M 3‐(N‐morpholino) propanesulfonic acid (MOPS). […] The plate was incubated at 37°C for 24 h, and subsequently the optical density at 630 nm (OD630nm) was spectrophotometrically measured. […]

As to `C#CCOc1ccc(C(=O)/C=C/c2ccc[n+](CCCCCCCCCCCCCC)c2)c(OCC#C)c1.[Br-]` [Compound 6, (E)‐3‐{3‐[2,4‐Bis(prop‐2‐yn‐1‐yloxy)phenyl]‐3‐oxoprop‐1‐en‐1‐yl}‐1‐tetradecylpyridin‐1‐ium bromide], the IC50 was 1320 nM in the assay with C. albicans ATCC 10231 (ATCC10231, 50% growth inhibition, read-out: IC50 [95% confidence interval] Candida albicans); 36300 nM in the assay on E. coli ATCC 25922 (ATCC25922, 50% growth inhibition, read-out: IC50 [95% confidence interval] Escherichia coli); 1300 nM with S. aureus ATCC 25923 (ATCC25923, 50% growth inhibition, 24 h, read-out: IC50 [95% confidence interval] Staphylococcus aureus). In addition, the MIC in the assay on C. albicans ATCC 10231 (ATCC10231, broth microdilution, 37°C) turned out to be 1.56 µM; in the assay with E. coli ATCC 25922 (ATCC25922, broth microdilution, 37°C) it was 50 µM; against S. aureus ATCC 25923 (ATCC25923, 24 h, broth microdilution, 37°C) it was 3.12 µM. The “reduction in C. albicans biofilm formation” value with C. albicans biofilm is on record as 68.3%. Besides, the “MIC decrease for E. coli in association with colistin” value with E. coli is on record as “fourfold”.

Values taken from PMC12066977, “Alkyl Tail Variation on Chalcone‐Based Quaternary Pyridinium Salts as Rule‐of‐Thumb for Antimicrobial Activity” (Archiv Der Pharmazie, 2025).
